{"source": "patent US20170209473A1", "about": "“ADIPONECTIN SECRETION REGULATOR” (THE UNIVERSITY OF TOKYO, priority 2014, published 2017)", "format_in_all_cases": "cell-based, Mouse", "key": {"[1]": {"test_system": "nuclear-receptor-type transcription factor PPAR-gamma", "experiment": "PPAR-gamma expression in adipocytes, Western blotting", "settings": "3T3-L1-derived adipocytes, 24 hours, FIG. 1", "procedure": "(§1) Mouse 3T3-L1 fibroblasts in a confluent state were induced with insulin to differentiate into adipocytes. The cells were then cultured for 48 hours in a DMEM medium containing 10% FBS. The cells were then cultured for 24 hours in a serum-free DMEM medium including L-fucose and/or D-glucose at the concentrations for each test section indicated in Table 1.\n(§2) After culturing, the culture supernatant was collected and mixed with an equal amount of reducing SDS-PAGE (polyacrylamide gel electrophoresis) loading buffer and held for 10 minutes at 100° C., a 5-10-μL sample for each lane was subjected to SDS-PAGE, and the nuclear-receptor-type transcription factor PPAR-gamma, actin as an internal standard protein, and adiponectin were detected by a Western blotting method using specific antibodies for each in accordance with the usual method. A near-infrared fluorescence imager (“Odyssey Fc,” manufactured by LI-COR, Inc.) was used for the detection, and the relative expression levels of each protein were compared."}, "adiponectin": {"test_system": "adiponectin", "experiment": "Adiponectin expression by adipocytes, reducing SDS-PAGE / Western blotting of culture supernatant", "settings": "3T3-L1-derived adipocytes, 24 hours serum-free DMEM, FIG. 1", "procedure": "as §1, §2"}, "[2]": {"test_system": "adiponectin monomers, trimers, hexamers and multimers", "experiment": "Adiponectin multimerization state, non-reducing SDS-PAGE / Western blotting of culture supernatant", "settings": "FIG. 2", "procedure": "as §1\nThe cell culture supernatant in the same test sections as in Test Example 1 was collected, equivalent samples for each test section were subjected to non-reducing SDS-PAGE, and adiponectin monomers appearing at a molecular weight position of approximately 30 kDa, trimers appearing at a position of approximately 100 kDa, hexamers appearing at a position of approximately 200 kDa, and multimers appearing at higher molecular weight positions were detected by a Western blotting method using specific antibodies for adiponectin. A near-infrared fluorescence imager (“Odyssey Fc,” manufactured by LI-COR, Inc.) was used for the detection, and the various multimerization states were compared."}, "[3]": {"settings": "0.1 w/v % glucose + 0.1 w/v % L-fucose (test section 2) vs test section 1, tendency more pronounced at low glucose"}, "[4]": {"settings": "0.45 w/v % glucose + 0.1 w/v % L-fucose (test section 4) vs test section 3"}}, "data": [{"smiles": "C[C@H](O)[C@@H](O)[C@@H](O)[C@H](O)C=O", "note": "[L-fucose]", "values": [{"measurement": "expression level of PPAR-gamma", "setting": "[1]; 0.1 w/v % D-glucose + 0.1 w/v % L-fucose (test section 2) vs test section 1", "value": "almost no change"}, {"measurement": "expression level of PPAR-gamma", "setting": "[1]; 0.45 w/v % D-glucose + 0.1 w/v % L-fucose (test section 4) vs test section 3", "value": "slight decrease"}, {"measurement": "expression level of adiponectin", "setting": "adiponectin; 0.1 w/v % glucose + 0.1 w/v % fucose (test section 2) vs test section 1 without fucose", "value": "tendency for the expression level of adiponectin to decrease"}, {"measurement": "expression level of adiponectin", "setting": "adiponectin; 0.45 w/v % glucose + 0.1 w/v % fucose (test section 4) vs test section 3 without fucose", "value": "tendency for the expression level of adiponectin to decrease"}, {"measurement": "adiponectin multimers", "setting": "[2]; [3]", "value": "increased"}, {"measurement": "incidence of adiponectin monomers, trimers, and hexamers", "setting": "[2]; [3]", "value": "reduced"}, {"measurement": "adiponectin multimers", "setting": "[2]; [4]", "value": "increased"}, {"measurement": "incidence of adiponectin monomers, trimers, and hexamers", "setting": "[2]; [4]", "value": "reduced"}]}]}
